Key:
[1] = HPLC analysis of the (S)-(+)-SAMe / (R)-(+)-SAMe diastereoisomer content (stability in time); type: physicochemical; details: after four months from the date of production
Description: 3 samples of SAMIR® [(R,S)-SAMe], produced by Knoll Farmaceutici S.p.A., were analyzed by HPLC. The values measured for each sample are as follows:
The products obtained according to the process of the invention in EXAMPLES 1-3, samples 4-6 respectively, were analyzed, similarly to what has been described in example 4, after four months from the date of their production.
The measured values for each sample were as follows: […]

[2] = system: enzymatic transmethylation; details: De La Haba et al., J.A.C.S. 1959; cited from earlier work
[3] = Wu et al., Biochemistry 1983; cited from earlier work

SMILES	percentage of (R)-(+)-SAMe [1]	percentage of (S)-(+)-SAMe [1]	percentage of (R)-(+)-SAMe ([1]; listed as sample N. 4)	enzymatic activity for the transmethylation [2]	formation of the inactive diastereoisomer (R)-(+)-SAMe by spontaneous racemisation [3]
C[S+](CC[C@H](N)C(=O)[O-])C[C@H]1O[C@@H](n2cnc3c(N)ncnc32)[C@H](O)[C@@H]1O.Cc1ccc(S(=O)(=O)O)cc1.O=S(=O)(O)O.O=S(=O)(O)O (single isomer, unassigned) [SAMPLE 4]	1%	99%	1%	–	–
C[S+](CC[C@H](N)C(=O)[O-])C[C@H]1O[C@@H](n2cnc3c(N)ncnc32)[C@H](O)[C@@H]1O.Cc1ccc(S(=O)(=O)O)cc1.O=S(=O)(O)O.O=S(=O)(O)O (single isomer, unassigned) [SAMPLE 5, (SS, RS)-SAMe disulphate paratoluensulphonate]	2%	98%	–	–	–
C[S+](CC[C@H](N)C(=O)[O-])C[C@H]1O[C@@H](n2cnc3c(N)ncnc32)[C@H](O)[C@@H]1O.Cc1ccc(S(=O)(=O)O)cc1.O=S(=O)(O)O.O=S(=O)(O)O (single isomer, unassigned) [SAMPLE 6]	2%	98%	–	–	–
C[S@@+](CC[C@H](N)C(=O)[O-])C[C@H]1O[C@@H](n2cnc3c(N)ncnc32)C(O)C1O (stereo in doubt) [(R)-(+)-SAMe, (R)-(+)-S-adenosyl-L-methionine]	–	–	–	inactive	–
C[S@@+](CC[C@H](N)C(=O)[O-])C[C@H]1O[C@@H](n2cnc3c(N)ncnc32)C(O)C1O (stereo in doubt) [(S)-(+)-SAMe, (S)-(+)-S-adenosyl-L-methionine]	–	–	–	enzymatically active	about 20%

Source: US6958233B2, “Process for the preparation of pharmaceutically acceptable salts of (R,S)-S-adenosyl-L-methionine” (Chementecno S.r.l., priority 2000, dated 2005)
